Data from the supplement of paper PMC10307832.

Compound: NCC(=O)Nc1ccc(-n2nc(C(F)(F)F)cc2-c2ccc3c(ccc4ccccc43)c2)cc1 + C[C@@H](Oc1cc(-c2cnn(C3CCNCC3)c2)cnc1N)c1c(Cl)ccc(F)c1Cl [Crizotinib] (partner 1 µM)
Assay: relative viability (nuclei count vs DMSO), 5 days (fraction); higher = more cells survive
Settings: first compound 0.02 µM
Procedure, shortened: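 Dosing by pin tool came one day after lung cancer cell lines were seeded in 1536-well plates, using either one drug or a fixed anchor-drug dose plus five library-drug doses (not always all listed) in √10 steps. After 5 days, nuclei were counted on 4× images. Relative viability is treated-well nuclei count divided by vehicle-well nuclei count, and values are medians of duplicate plates.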

Question: With ChaGo-K-1 as the cell line, how does the relative viability read?
Answer: 1.14

Question: For NCI-H2405, which relative viability is on record?
Answer: 0.916

Question: Which relative viability does the source give for HOP-62 here?
Answer: 0.579

Question: For HCC-44, which relative viability is on record?
Answer: 0.9

Question: For LU99A, which relative viability is on record?
Answer: 0.547

Question: Which relative viability does the source give for BEN here?
Answer: 0.923

Question: With HARA as the cell line, how does the relative viability read?
Answer: 1.06

Question: Which relative viability does the source give for HCC-78 here?
Answer: 0.361

Question: Which relative viability does the source give for NCI-H322M here?
Answer: 1.06

Question: Which relative viability does the source give for LCLC-97TM1 here?
Answer: 0.344

Question: For A-427, which relative viability is on record?
Answer: 0.87

Question: NCI-H441 was tested. Which relative viability did it give?
Answer: 1.08

Question: With NCI-H1734 as the cell line, how does the relative viability read?
Answer: 0.801

Question: NCI-H460 was tested. Which relative viability did it give?
Answer: 0.922

Question: For NCI-H2347, which relative viability is on record?
Answer: 0.755

Question: With 201T as the cell line, how does the relative viability read?
Answer: 1.02

Question: How did the relative viability turn out when NCI-H1915 was run?
Answer: 0.864

Question: HCC-827 was tested. Which relative viability did it give?
Answer: 0.988

Question: For LXF-289, which relative viability is on record?
Answer: 0.834

Question: How did the relative viability turn out when NCI-H23 was run?
Answer: 0.512

Question: NCI-H647 was tested. Which relative viability did it give?
Answer: 1.17

Question: How did the relative viability turn out when NCI-H1651 was run?
Answer: 0.803

Question: With EPLC-272H as the cell line, how does the relative viability read?
Answer: 1.03

Question: For NCI-H1792, which relative viability is on record?
Answer: 1.01

Question: NCI-H1355 was tested. Which relative viability did it give?
Answer: 0.959

Question: NCI-H3122 was tested. Which relative viability did it give?
Answer: 0.275

Question: How did the relative viability turn out when NCI-H1437 was run?
Answer: 0.946

Question: NCI-H1755 was tested. Which relative viability did it give?
Answer: 0.955

Question: HCC-15 was tested. Which relative viability did it give?
Answer: 0.817

Question: For PC-14, which relative viability is on record?
Answer: 1.1

Question: With EKVX as the cell line, how does the relative viability read?
Answer: 1.2

Question: For LC-2-ad, which relative viability is on record?
Answer: 0.463

Question: How did the relative viability turn out when NCI-H1975 was run?
Answer: 0.96

Same assay, conditions: first compound 0.06325 µM

Question: For ChaGo-K-1, which relative viability is on record?
Answer: 1.08

Question: NCI-H2405 was tested. Which relative viability did it give?
Answer: 0.927

Question: HOP-62 was tested. Which relative viability did it give?
Answer: 0.921

Question: For HCC-44, which relative viability is on record?
Answer: 0.828

Question: With LU99A as the cell line, how does the relative viability read?
Answer: 0.654

Question: BEN was tested. Which relative viability did it give?
Answer: 0.997

Question: Which relative viability does the source give for HARA here?
Answer: 1.01

Question: Which relative viability does the source give for HCC-78 here?
Answer: 0.363

Question: Which relative viability does the source give for NCI-H322M here?
Answer: 0.835

Question: How did the relative viability turn out when LCLC-97TM1 was run?
Answer: 0.34

Question: How did the relative viability turn out when A-427 was run?
Answer: 0.848

Question: Which relative viability does the source give for NCI-H441 here?
Answer: 0.666

Question: For NCI-H1734, which relative viability is on record?
Answer: 0.611

Question: NCI-H460 was tested. Which relative viability did it give?
Answer: 0.952

Question: For NCI-H2347, which relative viability is on record?
Answer: 0.768

Question: Which relative viability does the source give for 201T here?
Answer: 1.02

Question: Which relative viability does the source give for NCI-H1915 here?
Answer: 0.873

Question: For HCC-827, which relative viability is on record?
Answer: 1.04

Question: LXF-289 was tested. Which relative viability did it give?
Answer: 0.821

Question: NCI-H23 was tested. Which relative viability did it give?
Answer: 0.501

Question: For NCI-H647, which relative viability is on record?
Answer: 1.14

Question: How did the relative viability turn out when NCI-H1651 was run?
Answer: 0.853

Question: Which relative viability does the source give for EPLC-272H here?
Answer: 0.965

Question: For NCI-H1792, which relative viability is on record?
Answer: 1.02

Question: Which relative viability does the source give for NCI-H1355 here?
Answer: 1.2

Question: With NCI-H3122 as the cell line, how does the relative viability read?
Answer: 0.287

Question: NCI-H1437 was tested. Which relative viability did it give?
Answer: 0.85

Question: How did the relative viability turn out when NCI-H1755 was run?
Answer: 0.863

Question: For HCC-15, which relative viability is on record?
Answer: 0.808

Question: PC-14 was tested. Which relative viability did it give?
Answer: 0.905

Question: EKVX was tested. Which relative viability did it give?
Answer: 0.973

Question: How did the relative viability turn out when LC-2-ad was run?
Answer: 0.543

Question: How did the relative viability turn out when NCI-H1975 was run?
Answer: 0.954

Same assay, conditions: first compound 0.2 µM

Question: With ChaGo-K-1 as the cell line, how does the relative viability read?
Answer: 1.01

Question: Which relative viability does the source give for NCI-H2405 here?
Answer: 0.914

Question: HOP-62 was tested. Which relative viability did it give?
Answer: 0.942

Question: HCC-44 was tested. Which relative viability did it give?
Answer: 0.853

Question: With LU99A as the cell line, how does the relative viability read?
Answer: 0.593

Question: BEN was tested. Which relative viability did it give?
Answer: 0.837

Question: Which relative viability does the source give for HARA here?
Answer: 1.04

Question: How did the relative viability turn out when HCC-78 was run?
Answer: 0.346

Question: NCI-H322M was tested. Which relative viability did it give?
Answer: 0.962

Question: A-427 was tested. Which relative viability did it give?
Answer: 1.04

Question: How did the relative viability turn out when NCI-H441 was run?
Answer: 0.73

Question: NCI-H1734 was tested. Which relative viability did it give?
Answer: 0.788

Question: For NCI-H460, which relative viability is on record?
Answer: 0.931

Question: With NCI-H2347 as the cell line, how does the relative viability read?
Answer: 0.822

Question: Which relative viability does the source give for 201T here?
Answer: 1.01

Question: For NCI-H1915, which relative viability is on record?
Answer: 0.871

Question: With HCC-827 as the cell line, how does the relative viability read?
Answer: 0.966

Question: How did the relative viability turn out when LXF-289 was run?
Answer: 0.799

Question: With NCI-H23 as the cell line, how does the relative viability read?
Answer: 0.542

Question: How did the relative viability turn out when NCI-H647 was run?
Answer: 1.13

Question: NCI-H1651 was tested. Which relative viability did it give?
Answer: 0.875

Question: With EPLC-272H as the cell line, how does the relative viability read?
Answer: 0.881

Question: Which relative viability does the source give for NCI-H1792 here?
Answer: 0.976

Question: With NCI-H1355 as the cell line, how does the relative viability read?
Answer: 1.03

Question: Which relative viability does the source give for NCI-H3122 here?
Answer: 0.266

Question: For NCI-H1437, which relative viability is on record?
Answer: 0.964

Question: Which relative viability does the source give for NCI-H1755 here?
Answer: 0.904

Question: Which relative viability does the source give for HCC-15 here?
Answer: 0.795

Question: Which relative viability does the source give for PC-14 here?
Answer: 1.04

Question: Which relative viability does the source give for EKVX here?
Answer: 0.896

Question: With LC-2-ad as the cell line, how does the relative viability read?
Answer: 0.433

Question: With NCI-H1975 as the cell line, how does the relative viability read?
Answer: 0.954

Same assay, conditions: first compound 0.6325 µM

Question: How did the relative viability turn out when ChaGo-K-1 was run?
Answer: 1.05

Question: Which relative viability does the source give for NCI-H2405 here?
Answer: 0.847

Question: With HOP-62 as the cell line, how does the relative viability read?
Answer: 0.884

Question: With HCC-44 as the cell line, how does the relative viability read?
Answer: 0.819

Question: With LU99A as the cell line, how does the relative viability read?
Answer: 0.554

Question: BEN was tested. Which relative viability did it give?
Answer: 0.965

Question: HARA was tested. Which relative viability did it give?
Answer: 1.05

Question: For HCC-78, which relative viability is on record?
Answer: 0.337

Question: For NCI-H322M, which relative viability is on record?
Answer: 0.909

Question: Which relative viability does the source give for LCLC-97TM1 here?
Answer: 0.348

Question: For A-427, which relative viability is on record?
Answer: 0.935

Question: For NCI-H441, which relative viability is on record?
Answer: 0.6

Question: For NCI-H1734, which relative viability is on record?
Answer: 0.739

Question: For NCI-H460, which relative viability is on record?
Answer: 0.811

Question: Which relative viability does the source give for NCI-H2347 here?
Answer: 0.813

Question: 201T was tested. Which relative viability did it give?
Answer: 1.03

Question: How did the relative viability turn out when NCI-H1915 was run?
Answer: 0.83

Question: Which relative viability does the source give for HCC-827 here?
Answer: 0.929

Question: LXF-289 was tested. Which relative viability did it give?
Answer: 0.823

Question: With NCI-H23 as the cell line, how does the relative viability read?
Answer: 0.509

Question: For NCI-H647, which relative viability is on record?
Answer: 0.976

Question: NCI-H1651 was tested. Which relative viability did it give?
Answer: 0.881

Question: How did the relative viability turn out when EPLC-272H was run?
Answer: 0.878

Question: Which relative viability does the source give for NCI-H1792 here?
Answer: 1

Question: For NCI-H1355, which relative viability is on record?
Answer: 0.946

Question: NCI-H3122 was tested. Which relative viability did it give?
Answer: 0.289

Question: For NCI-H1437, which relative viability is on record?
Answer: 0.94

Question: NCI-H1755 was tested. Which relative viability did it give?
Answer: 0.891

Question: Which relative viability does the source give for HCC-15 here?
Answer: 0.773

Question: With PC-14 as the cell line, how does the relative viability read?
Answer: 0.976

Question: EKVX was tested. Which relative viability did it give?
Answer: 1.06

Question: For LC-2-ad, which relative viability is on record?
Answer: 0.47

Question: How did the relative viability turn out when NCI-H1975 was run?
Answer: 0.906

Same assay, conditions: first compound 2 µM

Question: For ChaGo-K-1, which relative viability is on record?
Answer: 1.03

Question: NCI-H2405 was tested. Which relative viability did it give?
Answer: 0.881

Question: With HOP-62 as the cell line, how does the relative viability read?
Answer: 0.927

Question: For HCC-44, which relative viability is on record?
Answer: 0.74

Question: Which relative viability does the source give for LU99A here?
Answer: 0.573

Question: Which relative viability does the source give for BEN here?
Answer: 0.9

Question: For HARA, which relative viability is on record?
Answer: 1.13

Question: For HCC-78, which relative viability is on record?
Answer: 0.348

Question: With NCI-H322M as the cell line, how does the relative viability read?
Answer: 0.922

Question: How did the relative viability turn out when LCLC-97TM1 was run?
Answer: 0.29

Question: A-427 was tested. Which relative viability did it give?
Answer: 0.865

Question: NCI-H441 was tested. Which relative viability did it give?
Answer: 0.749

Question: With NCI-H1734 as the cell line, how does the relative viability read?
Answer: 0.683

Question: With NCI-H460 as the cell line, how does the relative viability read?
Answer: 0.688

Question: For NCI-H2347, which relative viability is on record?
Answer: 0.688

Question: Which relative viability does the source give for 201T here?
Answer: 0.984

Question: Which relative viability does the source give for NCI-H1915 here?
Answer: 0.898

Question: With HCC-827 as the cell line, how does the relative viability read?
Answer: 0.937

Question: LXF-289 was tested. Which relative viability did it give?
Answer: 0.779

Question: With NCI-H23 as the cell line, how does the relative viability read?
Answer: 0.565

Question: How did the relative viability turn out when NCI-H647 was run?
Answer: 0.747

Question: How did the relative viability turn out when NCI-H1651 was run?
Answer: 0.952

Question: With EPLC-272H as the cell line, how does the relative viability read?
Answer: 0.962

Question: NCI-H1792 was tested. Which relative viability did it give?
Answer: 0.945

Question: Which relative viability does the source give for NCI-H1355 here?
Answer: 1.07
